pIC50: −log10 of the molar value. Calls of active or inactive are those of the source. The rule behind the calls is not given here.
Experiments:
cells [1] = settings: Homo sapiens, L02, 24 h
Description: Antiproliferative activity against human LO2 cells after 24 hrs by MTT assay

cells [2] = settings: Mus musculus, B16-F10, 24 h
Description: Antiproliferative activity against mouse B16F10 cells after 24 hrs by MTT assay

HepG2 = assay: cells; settings: Homo sapiens, HepG2, 24 h
Description: Antiproliferative activity against human HepG2 cells after 24 hrs by MTT assay

cells [3] = settings: Homo sapiens, HEK-293T, 24 h
Description: Antiproliferative activity against human 293T cells after 24 hrs by MTT assay

A549 = assay: cells; settings: Homo sapiens, A549, 24 h
Description: Antiproliferative activity against human A549 cells after 24 hrs by MTT assay

[4] = molecular target: Prostaglandin G/H synthase 1 (Homo sapiens, UniProt P23219); assay: Inhibition of human COX1 using arachidonic acid assessed as production of PGF2alpha after 5 mins by ELISA
HeLa [5] = assay: cells; settings: Homo sapiens, 24 h
Description: Antiproliferative activity against human HeLa cells after 24 hrs by MTT assay

HeLa [6] = assay: Inhibition of cell adhesion in human HeLa cells assessed as reduction in cell attachment up to 8 uM after 1 hr by MTT assay; assay type: functional, cell-based
HeLa [7] = assay: Inhibition of PGE2 secretion in human HeLa cells at 0.1 uM after 24 hrs by EIA monoclonal assay; assay type: functional, cell-based

Sequence of Prostaglandin G/H synthase 1 (P23219 whole entry): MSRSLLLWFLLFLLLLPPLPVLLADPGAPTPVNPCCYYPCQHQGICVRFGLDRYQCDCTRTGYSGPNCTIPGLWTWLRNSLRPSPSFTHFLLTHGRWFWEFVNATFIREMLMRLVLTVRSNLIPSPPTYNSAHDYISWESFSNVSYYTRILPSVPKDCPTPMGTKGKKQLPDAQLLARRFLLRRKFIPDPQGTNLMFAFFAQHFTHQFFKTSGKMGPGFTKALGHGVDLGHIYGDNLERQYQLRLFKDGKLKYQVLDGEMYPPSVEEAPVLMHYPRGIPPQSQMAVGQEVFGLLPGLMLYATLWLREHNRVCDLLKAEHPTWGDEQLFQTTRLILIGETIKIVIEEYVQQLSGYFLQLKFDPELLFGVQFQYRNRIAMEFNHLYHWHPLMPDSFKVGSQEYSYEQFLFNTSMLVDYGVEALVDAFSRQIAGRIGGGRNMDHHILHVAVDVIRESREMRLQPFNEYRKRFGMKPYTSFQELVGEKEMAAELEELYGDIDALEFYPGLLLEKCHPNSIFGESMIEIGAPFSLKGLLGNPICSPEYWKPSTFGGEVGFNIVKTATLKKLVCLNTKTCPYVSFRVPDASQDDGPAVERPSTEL

Structure (SMILES)	pIC50 (cells [2])	pIC50 (HepG2)	pIC50 (cells [3])	pIC50 (A549)	pIC50 [4]	pIC50 (HeLa [5])	pIC50 (cells [1])	inhibition (HeLa [6])	inhibition (HeLa [7])
COc1cccc(-c2cc(C(=O)N/N=C/c3c(Cl)c4ccccc4oc3=O)nn2-c2ccc(S(N)(=O)=O)cc2)c1	5.02	4.81	3.97	4.65	< 4.00	5.12	3.98		
NS(=O)(=O)c1ccc(-n2nc(C(=O)N/N=C/c3c(Cl)c4ccccc4oc3=O)cc2-c2cccc(F)c2)cc1	5.06	5.32	3.81	4.79	4.13	5.46	3.69		
COc1ccc(-c2cc(C(=O)N/N=C/c3c(Cl)c4ccccc4oc3=O)nn2-c2ccc(S(N)(=O)=O)cc2)cc1OC	4.70	4.67	3.76	4.40	4.16	4.88	3.73		
NS(=O)(=O)c1ccc(-n2nc(C(=O)N/N=C/c3c(Cl)c4ccccc4oc3=O)cc2-c2ccccc2)cc1	5.02	5.24	3.74	4.47	< 4.00	5.01	3.74		
NS(=O)(=O)c1ccc(-n2nc(C(=O)N/N=C/c3c(Cl)c4ccccc4oc3=O)cc2-c2ccc(F)cc2)cc1	5.01	5.45	3.74	4.95	4.27	6.03	3.72		
NS(=O)(=O)c1ccc(-n2nc(C(=O)N/N=C/c3c(Cl)c4ccccc4oc3=O)cc2-c2ccccc2O)cc1	4.68	4.70	< 3.52	4.77	< 4.00	4.93	3.80		
NS(=O)(=O)c1ccc(-n2nc(C(=O)N/N=C/c3c(Cl)c4ccccc4oc3=O)cc2-c2ccc(O)cc2)cc1	4.67	4.74	3.86	4.58	< 4.00	4.91	3.79		
CCOc1ccc(-c2cc(C(=O)N/N=C/c3c(Cl)c4ccccc4oc3=O)nn2-c2ccc(S(N)(=O)=O)cc2)cc1					4.10				
NS(=O)(=O)c1ccc(-n2nc(C(=O)N/N=C/c3c(Cl)c4ccccc4oc3=O)cc2-c2ccc(Cl)c(Cl)c2)cc1	5.13	5.29	3.82	4.63	4.02	5.31	< 3.52		
COc1cc(-c2cc(C(=O)N/N=C/c3c(Cl)c4ccccc4oc3=O)nn2-c2ccc(S(N)(=O)=O)cc2)cc(OC)c1OC	4.58	4.70	3.99	4.58	4.30	4.79	3.93		
NS(=O)(=O)c1ccc(-n2nc(C(=O)N/N=C/c3c(Cl)c4ccccc4oc3=O)cc2-c2cccc(Cl)c2)cc1	4.81	5.17	3.82	4.83	< 4.00	5.26	3.77		
Cc1ccc(-c2cc(C(F)(F)F)nn2-c2ccc(S(N)(=O)=O)cc2)cc1 [CELECOXIB]	4.84	5.00	4.02	4.81		5.11	4.01	inactive	Active
NS(=O)(=O)c1ccc(-n2nc(C(=O)N/N=C/c3c(Cl)c4ccccc4oc3=O)cc2-c2ccccc2Cl)cc1	5.04	5.21	3.60	4.91	4.06	5.29	3.67		

More lines, in order of rising pIC50 (cells [2]), values ahead:

pIC50 (cells [2])	pIC50 (HepG2)	pIC50 (cells [3])	pIC50 (A549)	pIC50 [4]	pIC50 (HeLa [5])	Structure (SMILES)	pIC50 (cells [1])	inhibition (HeLa [6])	inhibition (HeLa [7])
5.14	4.83	< 3.52	4.50	4.07	4.92	COc1ccc(-c2cc(C(=O)N/N=C/c3c(Cl)c4ccccc4oc3=O)nn2-c2ccc(S(N)(=O)=O)cc2)cc1	< 3.52		
5.16	5.36	3.63	4.62	< 4.00	5.16	Cc1ccc(-c2cc(C(=O)N/N=C/c3c(Cl)c4ccccc4oc3=O)nn2-c2ccc(S(N)(=O)=O)cc2)cc1C	< 3.52		
5.19	5.23	3.97	4.84	< 4.00	5.55	NS(=O)(=O)c1ccc(-n2nc(C(=O)N/N=C/c3c(Cl)c4ccccc4oc3=O)cc2-c2ccccc2F)cc1	3.83		
5.21	4.95	3.72	4.65	4.05	5.06	Cc1ccc(-c2cc(C(=O)N/N=C/c3c(Cl)c4ccccc4oc3=O)nn2-c2ccc(S(N)(=O)=O)cc2)cc1	< 3.52		
5.28	5.22	< 3.52	4.69	4.32	4.96	Cc1cccc(-c2cc(C(=O)N/N=C/c3c(Cl)c4ccccc4oc3=O)nn2-c2ccc(S(N)(=O)=O)cc2)c1	3.70		
5.33	5.17	3.76	4.55	4.40	5.10	Cc1ccc(-c2cc(C(=O)N/N=C/c3c(Cl)c4ccccc4oc3=O)nn2-c2ccc(S(N)(=O)=O)cc2)c(C)c1	3.69		
5.39	5.79	3.95	5.41	4.38	6.28	NS(=O)(=O)c1ccc(-n2nc(C(=O)N/N=C/c3c(Cl)c4ccccc4oc3=O)cc2-c2ccc([N+](=O)[O-])cc2)cc1	3.87		

— ChEMBL document CHEMBL3822383, “Coumarin sulfonamides derivatives as potent and selective COX-2 inhibitors with efficacy in suppressing cancer proliferation and metastasis” (Bioorg Med Chem Lett, 2016)
